Measurements reported in ChEMBL document CHEMBL6096717, “Novel 3-Pyrrolidineindole Derivatives as Serotonergic Psychedelic Agents for Treating Psychosis and Mental Illnesses Such as Depression and Post-Traumatic Stress Disorder” (ACS Med Chem Lett, 2025).
pIC50: −log10 of the molar value.

Target: 5-hydroxytryptamine receptor 2A (Homo sapiens, UniProt P28223)
Assay: Displacement of [3H]-ketanserin from human 5HT2A receptor incubated for 90 mins by Microbeta2 scintillation counting analysis

Chain of 5-hydroxytryptamine receptor 2A (P28223 whole entry): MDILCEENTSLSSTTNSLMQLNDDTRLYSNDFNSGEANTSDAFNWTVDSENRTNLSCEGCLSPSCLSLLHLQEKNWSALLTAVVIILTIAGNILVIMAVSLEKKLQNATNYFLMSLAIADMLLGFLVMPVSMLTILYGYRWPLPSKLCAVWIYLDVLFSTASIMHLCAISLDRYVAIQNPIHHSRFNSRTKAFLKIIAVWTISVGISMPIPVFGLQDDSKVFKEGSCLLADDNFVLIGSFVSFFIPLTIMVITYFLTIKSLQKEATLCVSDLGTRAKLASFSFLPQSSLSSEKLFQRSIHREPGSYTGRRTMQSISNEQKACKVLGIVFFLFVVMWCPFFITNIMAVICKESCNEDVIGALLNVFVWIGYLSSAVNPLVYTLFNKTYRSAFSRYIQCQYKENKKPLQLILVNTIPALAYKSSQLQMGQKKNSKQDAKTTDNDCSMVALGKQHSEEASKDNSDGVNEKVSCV

Structure (SMILES) | pIC50
[2H]C([2H])(c1c[nH]c2cccc(O)c12)[C@H]1CCCN1C([2H])([2H])[2H] | > 6.30
[2H]C([2H])([2H])N1CCC[C@@H]1Cc1c[nH]c2cccc(O)c12 | > 6.30
[2H]C([2H])([2H])N1CCC[C@@H]1Cc1c[nH]c2cccc(F)c12 | > 6.30
[2H]C([2H])([2H])N1CCC[C@@H]1Cc1c[nH]c2cccc(OC(=O)CCCCCCC/C=C\C/C=C\CCCC)c12 | > 6.30
[2H]C([2H])(c1c[nH]c2cccc(OC(=O)CCCCCCC/C=C\C/C=C\CCCC)c12)[C@H]1CCCN1C([2H])([2H])[2H] | > 6.30
[2H]C([2H])(c1c[nH]c2cccc(Cl)c12)[C@H]1CCCN1C([2H])([2H])[2H] | > 6.30
